Assay results as given in patent publication US11666633B2, “Long-acting peptide analogs” (The Board of Trustees of the Leland Stanford Junior …, priority 2011, dated 2023).
*1 amine or outer side, *2 acyl side, *3 side chain or, on linkers, in order; H or OH if unused. Where no end group is shown, it is not given here. K(Palm) = CCCCCCCCCCCCCCCC(=O)NCCCC[C@H](N[*:1])C(=O)[*:2]

What was measured:
SHR rats [1] = assay: Systolic blood pressure in conscious SHR rats (tail-cuff) after i.p. adrenomedullin peptides; format: in vivo, rat
Method: FIG. 5A-5C show examples of systolic pressure measurement of SHR rats after an injection of a long-acting adrenomedullin peptide (Palmitic acid-conjugated ADM, ADM-PA, 100 nmoles/kg BM. The hypotensive effect of this peptide lasted over five hours in vivo. By contrast, the hypotensive effect of unmodified ADM peptide normally lasts less than 1.5 hr.
(§1) Biological activity of adrenomedullin analog in vivo. The adrenomedullin peptides were dissolved in saline solution with 10-20% DMSO at 10 micromoles/liter, Before injection, aliquots of peptides were dissolved in PBS to a injection final volume of 200 μl. Blood pressure measurements were made in conscious SHR rats (9-16 weeks of age) pre-adapted to the measurement procedure. Indirect systolic pressure was determined by a programmable non-invasive blood pressure system using the tail-cuff method (Kent Scientific Corporation). Following attachment of the pressure transducer, rats were left undisturbed for 10 min before base-line measurements that spanned a 10-15 minute interval. Following base-line measurements, rats were injected intraperitoneally with varying doses of peptides, or saline with 10% DMSO. Blood pressure and heart rate were monitored for 20-40 min at 20-s intervals. Changes in blood pressure were calculated as the average of measurements performed within a given time interval.
(see Roh et al. Mol Endocrinol. 2005 November; 19(11):2824-38).

[2] = biological target: T1, adrenomedullin receptor 1 (CLR/RAMP2) (Homo sapiens, UniProt O60895+Q16602); assay: Stimulatory effect in 293T cells expressing recombinant adrenomedullin receptor 1; format: cell-based; conditions: 293T cells expressing CLR/RAMP2
T1 construct: expressed in transfected cells; host or cells: 293T cells
T1 sequence (Q16602 23-461): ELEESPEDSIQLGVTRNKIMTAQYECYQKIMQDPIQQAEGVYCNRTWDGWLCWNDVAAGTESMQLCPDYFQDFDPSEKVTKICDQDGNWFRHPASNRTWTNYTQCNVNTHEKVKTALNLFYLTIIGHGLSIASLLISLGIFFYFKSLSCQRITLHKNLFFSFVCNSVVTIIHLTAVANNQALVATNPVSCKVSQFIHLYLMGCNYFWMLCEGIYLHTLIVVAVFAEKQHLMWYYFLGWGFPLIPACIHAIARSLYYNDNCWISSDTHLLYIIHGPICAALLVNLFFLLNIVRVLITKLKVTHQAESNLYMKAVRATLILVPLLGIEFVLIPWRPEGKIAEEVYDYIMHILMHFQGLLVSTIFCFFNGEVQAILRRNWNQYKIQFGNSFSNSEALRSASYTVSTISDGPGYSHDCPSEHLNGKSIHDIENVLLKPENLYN
T1 sequence (O60895 43-175): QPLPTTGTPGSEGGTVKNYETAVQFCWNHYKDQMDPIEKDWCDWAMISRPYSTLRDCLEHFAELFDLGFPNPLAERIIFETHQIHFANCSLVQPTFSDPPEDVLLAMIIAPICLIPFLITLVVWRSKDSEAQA
Text: (§2) Biological activity of adrenomedullin in vitro.

[3] = biological target: T2, adrenomedullin receptor 2 (CLR/RAMP3) (Homo sapiens, UniProt O60896+Q16602); assay: Stimulatory effect in 293T cells expressing recombinant adrenomedullin receptor 2; format: cell-based; conditions: 293T cells expressing CLR/RAMP3
T2 construct: expressed in transfected cells; host or cells: 293T cells
T2 sequence (Q16602 23-461): as the sequence (Q16602 23-461) above
T2 sequence (O60896 24-148): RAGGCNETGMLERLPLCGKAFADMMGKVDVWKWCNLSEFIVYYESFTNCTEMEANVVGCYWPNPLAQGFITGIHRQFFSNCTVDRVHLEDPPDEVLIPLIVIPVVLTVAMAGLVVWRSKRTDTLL
Text: as §2

[4] = Immunoreactive ADM retained in vivo after i.p. injection, by ELISA
SHR rats [5] = conditions: unmodified ADM peptide; stated as what it normally lasts, no figure; cited from earlier work
SHR rats [6] = assay: Systolic blood pressure in conscious SHR rats (tail-cuff) after i.p. intermedin peptides; format: in vivo, rat; conditions: for duration of hypotensive effect in vivo: i.p.
Text: FIG. 1A-1C are examples of blood pressure measurements in SHR rats after treatment with a long-acting intermedin peptide (Palmitic acid-modified IMD, IMD-PA), A. 30 nmoles/kg BW; B/C, 100 nmoles/kg BW.
FIG. 2A-2B are examples of blood pressure measurements in SHR rates after injection with a wild type intermedin peptide (IMD, 100 nmoles/kg BW). The hypotensive effects of the IMD-PA peptide lasted over five hours in vivo, whereas that of the unmodified IMD peptide lasted less than 1 hr.
as §1, with “The” for “Biological activity of adrenomedullin analog in vivo. The”, “intermedin” for “adrenomedullin”, “100 ul.” for “200 μl.”, “15-20” for “10-15”, “30-s” for “20-s”
The hypotensive effects of this peptide lasted over five hours in vivo, whereas that of the unmodified IMD peptide lasted less than 1 hr. The results from control animals injected with PBS is depicted in FIG. 3, and from the unmodified peptide in FIG. 2.

Substance: K(mod)GCRFGTCTVQKLAHQIYQFTDKDKDNVAPRSKISPQGY [ADM-PA]
- change in systolic blood pressure over time (SHR rats [1]; SHR rats, 100 nmoles/kg body weight): significant and long lasting drop
- duration of hypotensive effect in vivo (SHR rats [1]; SHR rats, ADM-PA 100 nmoles/kg): over five
- effective life in vivo compared with wild type ADM (SHR rats [1]; in vivo): significantly longer effective life
- stimulatory effect in vitro compared with wild type ADM [2]: lower than that of the wild type ADM
- stimulatory effect in vitro compared with wild type ADM [3]: lower than that of the wild type ADM
- level of immunoreactive peptide retained in vivo compared with ADM ([4]; 12 hr after i.p. injection): significantly higher
- half-life compared with ADM ([4]; measurement of immunoreactive ADM using ELISA): long half-life as compared to ADM

Substance: ADM: wild type, unmodified adrenomedullin peptide (YRQSMNNFQGLRSFGCRFGTCTVQKLAHQIYQFTDKDKDNVAPRSKISPQGY; ends and bridges not checked; cysteine pairing not given here)
- duration of hypotensive effect (normally) (SHR rats [5]): less than 1.5 hr

Substance: K(mod)GCVLGTCQVQNLSHRLWQLMGPAGRQDSAPVDPSSPHSY ({K(Palm)}-GCVLGTCQVQNLSHRLWQLMGPAGRQDSAPVDPSSPHSY; ends and bridges not checked) [IMD-PA, long-acting intermedin peptide, palmitic acid-modified via an incorporated Lys(PAL) residue]
- change in systolic blood pressure over time (SHR rats [6]; i.p. injection): significant and long lasting drop
- duration of hypotensive effect in vivo (SHR rats [6]; IMD-PA 30 or 100 nmoles/kg BW): over five

Substance: IMD: wild type, unmodified intermedin peptide (VGCVLGTCQVQNLSHRLWQLMGPAGRQDSAPVDPSSPHSY; ends and bridges not checked; cysteine pairing not given here) [reference compound]
- duration of hypotensive effect in vivo (SHR rats [6]; unmodified IMD 100 nmoles/kg BW): less than 1 hr
